“Also recorded” adds a separate entry of the source.
Assays:
[1] = test system: primary hyaloid vessels in zebrafish; test: Quantification of primary hyaloid vasculature branch number in Tg(fli1:EGFP) zebrafish; assay type: in vivo
Procedure: All experiments were carried out under ethical approval granted by the UCD animal research ethics committee. Tg(fli1:EGFP) zebrafish were maintained according to standard procedures on a 14 hr light/10 hr dark cycle at 28° C. Embryos were obtained by natural spawning and developmental stages established by time and morphological criteria. At 48 hours post fertilisation (hpf), 5 embryos per well were placed in 400 μl of Embryo Medium/0.1% DMSO and incubated with compound (typically, 10 μM) at 28° C. on a 14 h light/10 h dark cycle. At 5 days post fertilisation (dpf), larvae were euthanised, and fixed in 4% PFA at 4° C. overnight before analysis.
Prior to analysis of the intraocular vasculature, the control and treated larvae were observed under an Olympus SZX16 stereo zoom microscope and screened for general malformations. Overall patterning of the vasculature (fin, gut and intersegmental vessels) was examined for abnormalities. Right lenses were dissected from the larvae and transferred to depression slides for observation under epi-fluorescence in the Olympus SZX16. Patterning of the hyaloid vessels on the treated larval lenses was compared to 0.1% DMSO controls and the archetypal pattern previously described (Alvarez et al., 2007; Alvarez et al., 2009). The number of primary vessels radiating from the back of the lens (3-4 main branches at 5 dpf in controls and previously described), was counted and the average number was graphed for each drug.
(§1) All experimental protocols were carried out as per example 1 and 2. Briefly, zebrafish larvae were treated with 10 μM of AT-051/41206012 (chemical name 2-[2-(2-methoxyphenyl)ethenyl]pyrazine) purchased from Specs (The Netherlands). At 6 or 48 hours post fertilisation (hpf), 5 embryos per well were placed in 400 μl of Embryo Medium/0.1% DMSO and incubated with 10 μM AT-051/41206012 at 28° C. on a 14 h light/10 h dark cycle. Larvae were treated from 6-48 hpf (intersegmental vessel study) or from 48 to 120 hpf (primary hyaloid vessel study). At the end of the study, larvae were euthanized and fixed in 4% PFA at 4° C. overnight before analysis.
(§2) The number of intersegmental vessels was counted and the average number was graphed for each drug. Right lenses were dissected from the larvae and transferred to depression slides for observation and the number of primary hyaloid vessels radiating from the back of the lens (3-4 main branches at 5 dpf in controls and previously described), was counted and the average number was graphed for each drug.

[2] = test system: intersegmental vasculature in zebrafish; test: Quantification of intersegmental vessel number in zebrafish; assay type: in vivo; conditions: 10 μM; zebrafish embryos treated 6 hpf to 48 hpf
Procedure: At 6 hours post fertilisation, 5 embryos per well were placed in 400 μL of embryo medium/0.1% DMSO and incubated with 10 μM compound at 28° C. on a 14 h light/10 h dark cycle. At 48 hpf larvae were manually dechorionated, euthanised, and fixed in 4% PFA at 4° C. overnight before analysis. The larvae were then washed with PBS and transferred to depression slides for observation under epi-fluorescence in an Olympus SZX16 fluorescent microscope. The number of intersegmental vessels was counted and the average number was graphed for each drug.
as §1, §2

PAI-1 = test: Multiplex ELISA of HMEC media: PAI-1; assay type: cell-based, human; conditions: compound-treated HMECs, 16 hours
Procedure: (§3) Dermal-derived Human Microvascular Endothelial Cells (HMEC) were maintained at 37° C./5% CO2 in MCDB-131 medium (Gibco/cat: 10372) supplemented with 10% FCS, L-Glutamine (Gibco/cat: 25030-032), 1 μl/ml Hydrocortisone (Sigma/cat: H0396), 10 ng/ml EGF (BD Biosciences 354001) and 1% Pen-Strep (Gibco/cat: 151040-148). The wells of a μ-slide angiogenesis plate (IBIDI Cat no: 81506) were coated with a layer of matrigel matrix (BD 356234) which was left to polymerize for 45 minutes at 37° C. HMECs were grown to 80% confluence, washed with DPBS (Invitrogen) and trypsinised using 2 ml TrypLE™ Express (1×) (Invitrogen). Cells were centrifuged following flask detachment at 1200 rpm for 4 minutes. The cell pellet was resuspended in 3 ml full media and a cell count was performed using a haemocytometer. 7.5×10^3 cells were pipetted into each matrigel coated well of the μ-slide angiogenesis plate and treated with either 0.1% DMSO or 1, 3.16 or 10 μM compound 4 or compound 18. The slide was kept at 37° C./5% CO2 during cell tube formation. After 16 hours, 50 μl of media was removed from each of the Ibidi wells and 25 μl of the media was run in each well of a Meso Scale Discovery (MD, USA) custom multiplex ELISA containing the following analytes: Ang-1, Ang-2, VEGF, bFGF, PAI-1, sICAM and sVCAM. The ELISA was run as per manufacturer's instructions.

VEGF = test: Multiplex ELISA of HMEC media: VEGF; assay type: cell-based, human; conditions: compound-treated HMECs, 16 hours
Procedure: as §3

sVCAM-1 = test: Multiplex ELISA of HMEC media: sVCAM-1; assay type: cell-based, human; conditions: compound-treated HMECs, 16 hours
Procedure: as §3

[3] = test system: human endothelial (HMEC) cells; test: MTT cell viability assay in HMEC; assay type: cell-based; conditions: 10 μM, 24 hours
Procedure: A 3-(4,5-dimethylthiozol-2-yl)-2,5-diphenyltetrazolium bromide (MTT) dye reduction assay was carried out to determine the cytotoxicity of each compound on either human microvascular endothelial cells (HMECs) or human retinal pigmented epithelium cells (ARPE-19). Cells were maintained in a 95% air and 5% CO2 atmosphere at 37° C. in Dulbecco modified Eagle medium (DMEM, Sigma Aldrich) with 10% fetal bovine serum, 2 mM Gibco® L-glutamine and 100 units/ml penicillin, 1 mg/ml streptomycin (Invitrogen) supplementation. On day 1, cells were trypsinized (Trypsin-EDTA 1×) and seeded 1.4×10^4 cells per well of a 96 well plate and incubated overnight. On day 2, cells were serum staved in DMEM with L-glutamine and penicillin-streptomycin supplementation for 24 h. On day 3, cells were drug treated for 24 h (HMECs) or 96 h (ARPE-19 cells) with 0.1% DMSO or 10 μM to 90 μM of each compound 4, 8, 15, 18 or 20, with 4 replicate wells of each compound. After 24-96 h, cells were incubated with […] 5 mg/ml MTT labelling Reagent (Roche) for 2 h. Subsequently, when purple formazan crystals formed cells were incubated with 1× solubilisation solution (Roche) for 4 h and absorbance read at 570 nm using a microplate reader.

[4] = 10 μM, zebrafish larvae treated 48 hpf to 5 dpf, vs 0.1% DMSO control
[5] = concentrations below 10 μM (range 1, 2.5, 5, 7.5 and 10 μM tested), zebrafish larvae 48 hpf to 5 dpf

| SMILES | inhibition of developmental angiogenesis of the hyaloid vasculature (number of primary hyaloid vessels) [1, 4] | inhibition of developmental angiogenesis of the hyaloid vasculature (number of primary hyaloid vessels) [1, 5] | inhibition of developmental angiogenesis of intersegmental vessels (number of intersegmental vessels) [2] | expression of PAI-1 (PAI-1) | expression of VEGF (VEGF) | expression of sVCAM-1 (sVCAM-1) | cell viability (MTT assay) [3] | expression of PAI-1 (PAI-1; hydrochloride) |
| --- | --- | --- | --- | --- | --- | --- | --- | --- |
| Oc1ccccc1C#Cc1cnccn1 [Compound 18, 2-[2-(Pyrazin-2-yl)ethynyl]phenol] | inhibit developmental angiogenesis of the zebrafish hyaloid vasculature in a statistically significant manner | inhibit developmental angiogenesis of the zebrafish hyaloid vasculature in a statistically significant manner | inhibit developmental angiogenesis of zebrafish intersegmental vessels in a statistically significant manner | significantly reduce; also recorded: reduce expression of Ang-2 and PAI-1 in human endothelial microvascular cells in a statistically significant manner | not significantly different to control-treated HMECs | not significantly different to control-treated HMECs | does not affect cell viability |  |
| Cl.Oc1ccccc1/C=C/c1cnccn1 [Compound 4, (E)-2-[2-(Pyrazin-2-yl)vinyl]phenol hydrochloride] | inhibit developmental angiogenesis of the zebrafish hyaloid vasculature in a statistically significant manner | inhibit developmental angiogenesis of the zebrafish hyaloid vasculature in a statistically significant manner | inhibit developmental angiogenesis of zebrafish intersegmental vessels in a statistically significant manner |  | not significantly different to control-treated HMECs | not significantly different to control-treated HMECs | does not affect cell viability | significantly reduce; also recorded: reduce expression of Ang-2 and PAI-1 in human endothelial microvascular cells in a statistically significant manner |

Source: US9975860B2, “Anti-angiogenic compounds” (UNIVERSITY COLLEGE DUBLIN—NATIONAL UNIVERSITY OF IRELAND, …, priority 2014, dated 2018)
